Test results: ChEMBL document CHEMBL4390652, “Design, biological evaluation and X-ray crystallography of nanomolar multifunctional ligands targeting simultaneously acetylcholinesterase and glycogen synthase kinase-3” (Eur J Med Chem, 2019)

Columns and labels:
[1] = molecular target: Protein-tyrosine kinase 6 (Homo sapiens) (UniProt Q13882); assay: Binding affinity to wild-type human partial length BRK (L166 to T451 residues) expressed in bacterial expression system assessed as residual binding level at 10 uM by Kinomescan method relative to control
[2] = molecular target: Serine/threonine-protein kinase MARK1 (Homo sapiens) (UniProt Q9P0L2); assay: Binding affinity to wild-type human partial length MARK1 (Q30 to T341 residues) expressed in bacterial expression system assessed as residual binding level at 10 uM by Kinomescan method relative to control
[3] = tested on: Receptor-type tyrosine-protein kinase FLT3 (Homo sapiens), P36888 [N841I]; assay: Binding affinity to human partial length FLT3 N841I mutant (V592 to Y969 residues) expressed in bacterial expression system assessed as residual binding level at 10 uM by Kinomescan method relative to control
[4] = molecular target: Protein kinase C epsilon type (Homo sapiens) (UniProt Q02156); assay: Binding affinity to wild-type human partial length PRKCE (A378 to P737 residues) expressed in mammalian expression system assessed as residual binding level at 10 uM by Kinomescan method relative to control
[5] = molecular target: Tyrosine-protein kinase ITK/TSK (Homo sapiens) (UniProt Q08881); assay: Binding affinity to wild-type human partial length ITK (R335 to L620 residues) expressed in bacterial expression system assessed as residual binding level at 10 uM by Kinomescan method relative to control
[6] = molecular target: Cyclin-dependent kinase 2 (Homo sapiens) (UniProt P24941); assay: Binding affinity to wild-type human full length CDK2 (M1 to L298 residues) expressed in bacterial expression system assessed as residual binding level at 10 uM by Kinomescan method relative to control
[7] = tested on: Tyrosine-protein kinase ABL1 (Homo sapiens), P00519 [T315I]; assay: Binding affinity to human phosphorylated ABL1 T315I mutant (S229 to K512 residues) expressed in mammalian expression system assessed as residual binding level at 10 uM by Kinomescan method relative to control
[8] = molecular target: Serine/threonine-protein kinase RIO3 (Homo sapiens) (UniProt O14730); assay: Binding affinity to wild-type human full length RIOK3 (M1 to E519 residues) expressed in bacterial expression system assessed as residual binding level at 10 uM by Kinomescan method relative to control
[9] = molecular target: Serine/threonine-protein kinase PAK 3 (Homo sapiens) (UniProt O75914); assay: Binding affinity to wild-type human full length PAK3 (M1 to R544 residues) expressed in bacterial expression system assessed as residual binding level at 10 uM by Kinomescan method relative to control
[10] = molecular target: Receptor-type tyrosine-protein kinase FLT3 (Homo sapiens) (UniProt P36888); assay: Binding affinity to wild-type human partial length FLT3 (V592 to Y969 residues) expressed in bacterial expression system assessed as residual binding level at 10 uM by Kinomescan method relative to control
[11] = molecular target: Receptor-type tyrosine-protein kinase FLT3 (Homo sapiens) (UniProt P36888); assay: Binding affinity to wild-type human partial length autoinhibited FLT3 (H564 to Y969 residues) expressed in mammalian expression system assessed as residual binding level at 10 uM by Kinomescan method relative to control
[12] = molecular target: 1-phosphatidylinositol 3-phosphate 5-kinase (Homo sapiens) (UniProt Q9Y2I7); assay: Binding affinity to wild-type human partial length PIKFYVE (F1512 to C2098 residues) expressed in mammalian expression system assessed as residual binding level at 10 uM by Kinomescan method relative to control
[13] = tested on: Epidermal growth factor receptor (Homo sapiens), P00533 [L861Q]; assay: Binding affinity to human partial length EGFR L861Q mutant (R669 to V1011 residues) expressed in bacterial expression system assessed as residual binding level at 10 uM by Kinomescan method relative to control
[14] = molecular target: Receptor-interacting serine/threonine-protein kinase 4 (Homo sapiens) (UniProt P57078); assay: Binding affinity to wild-type human partial length RIPK4 (M1 to V303 residues) expressed in mammalian expression system assessed as residual binding level at 10 uM by Kinomescan method relative to control
[15] = molecular target: BMP-2-inducible protein kinase (Homo sapiens) (UniProt Q9NSY1); assay: Binding affinity to wild-type human partial length BIKE (S34 to N329 residues) expressed in bacterial expression system assessed as residual binding level at 10 uM by Kinomescan method relative to control
[16] = tested on: Receptor-type tyrosine-protein kinase FLT3 (Homo sapiens), P36888 [D835V]; assay: Binding affinity to human partial length FLT3 D835V mutant (V592 to Y969 residues) expressed in bacterial expression system assessed as residual binding level at 10 uM by Kinomescan method relative to control
[17] = molecular target: Phosphatidylinositol 4-phosphate 5-kinase type-1 gamma (Homo sapiens) (UniProt O60331); assay: Binding affinity to wild-type human partial length PIP5K1C (M1 to T668 residues) expressed in mammalian expression system assessed as residual binding level at 10 uM by Kinomescan method relative to control
[18] = molecular target: Ribosomal protein S6 kinase alpha-2 (Homo sapiens) (UniProt Q15349); assay: Binding affinity to wild-type human partial length N-terminal RSK3 kinase domain 1 (M1 to Q385 residues) expressed in bacterial expression system assessed as residual binding level at 10 uM by Kinomescan method relative to control
[19] = molecular target: Phosphatidylinositol 5-phosphate 4-kinase type-2 gamma (Homo sapiens) (UniProt Q8TBX8); assay: Binding affinity to wild-type human partial length PIP5K2C (M1 to A421 residues) expressed in mammalian expression system assessed as residual binding level at 10 uM by Kinomescan method relative to control
[20] = molecular target: Dual specificity mitogen-activated protein kinase kinase 1 (Homo sapiens) (UniProt Q02750); assay: Binding affinity to wild-type human full length MEK1 (M1 to V393 residues) expressed in mammalian expression system assessed as residual binding level at 10 uM by Kinomescan method relative to control
[21] = molecular target: Calcium/calmodulin-dependent protein kinase type II subunit alpha (Homo sapiens) (UniProt Q9UQM7); assay: Binding affinity to wild-type human partial length CAMK2A (M1 to K328 residues) expressed in bacterial expression system assessed as residual binding level at 10 uM by Kinomescan method relative to control
[22] = molecular target: Tyrosine-protein kinase Tec (Homo sapiens) (UniProt P42680); assay: Binding affinity to wild-type human partial length TEC (L341 to D620 residues) expressed in bacterial expression system assessed as residual binding level at 10 uM by Kinomescan method relative to control
[23] = molecular target: Epidermal growth factor receptor (Homo sapiens) (UniProt P00533); assay: Binding affinity to wild-type human partial length EGFR (R669 to V1011 residues) expressed in bacterial expression system assessed as residual binding level at 10 uM by Kinomescan method relative to control
[24] = molecular target: Mitogen-activated protein kinase kinase kinase kinase 2 (Homo sapiens) (UniProt Q12851); assay: Binding affinity to wild-type human partial length MAP4K2 (M1 to G318 residues) expressed in mammalian expression system assessed as residual binding level at 10 uM by Kinomescan method relative to control
Mitogen-activated protein kinase kinase kinase kinase 2 (Homo sapiens), sequence (Q12851 whole entry, the tested form may be a part): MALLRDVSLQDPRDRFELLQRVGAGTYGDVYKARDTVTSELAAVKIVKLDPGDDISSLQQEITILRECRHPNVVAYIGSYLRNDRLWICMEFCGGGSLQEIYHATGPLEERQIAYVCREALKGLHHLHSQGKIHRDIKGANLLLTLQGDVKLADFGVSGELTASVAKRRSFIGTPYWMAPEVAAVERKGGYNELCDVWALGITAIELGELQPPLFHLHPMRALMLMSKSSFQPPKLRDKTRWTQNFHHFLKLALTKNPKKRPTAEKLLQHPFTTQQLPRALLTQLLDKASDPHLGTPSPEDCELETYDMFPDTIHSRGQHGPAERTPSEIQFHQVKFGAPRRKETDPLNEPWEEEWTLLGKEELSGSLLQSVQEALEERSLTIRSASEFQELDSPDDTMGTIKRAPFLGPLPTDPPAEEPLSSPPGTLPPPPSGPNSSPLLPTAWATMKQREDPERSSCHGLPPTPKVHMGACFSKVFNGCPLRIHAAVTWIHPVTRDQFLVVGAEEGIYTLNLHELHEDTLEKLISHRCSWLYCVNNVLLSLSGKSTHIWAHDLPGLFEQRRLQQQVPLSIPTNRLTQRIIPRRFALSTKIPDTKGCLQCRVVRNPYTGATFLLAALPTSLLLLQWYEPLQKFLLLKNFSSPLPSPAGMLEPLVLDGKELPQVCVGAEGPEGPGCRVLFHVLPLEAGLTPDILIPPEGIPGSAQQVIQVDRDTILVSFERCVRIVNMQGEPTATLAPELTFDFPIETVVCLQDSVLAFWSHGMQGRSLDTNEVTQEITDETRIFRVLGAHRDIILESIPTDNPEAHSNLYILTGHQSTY

Ribosomal protein S6 kinase alpha-2 (Homo sapiens), sequence (Q15349 whole entry, the tested form may be a part): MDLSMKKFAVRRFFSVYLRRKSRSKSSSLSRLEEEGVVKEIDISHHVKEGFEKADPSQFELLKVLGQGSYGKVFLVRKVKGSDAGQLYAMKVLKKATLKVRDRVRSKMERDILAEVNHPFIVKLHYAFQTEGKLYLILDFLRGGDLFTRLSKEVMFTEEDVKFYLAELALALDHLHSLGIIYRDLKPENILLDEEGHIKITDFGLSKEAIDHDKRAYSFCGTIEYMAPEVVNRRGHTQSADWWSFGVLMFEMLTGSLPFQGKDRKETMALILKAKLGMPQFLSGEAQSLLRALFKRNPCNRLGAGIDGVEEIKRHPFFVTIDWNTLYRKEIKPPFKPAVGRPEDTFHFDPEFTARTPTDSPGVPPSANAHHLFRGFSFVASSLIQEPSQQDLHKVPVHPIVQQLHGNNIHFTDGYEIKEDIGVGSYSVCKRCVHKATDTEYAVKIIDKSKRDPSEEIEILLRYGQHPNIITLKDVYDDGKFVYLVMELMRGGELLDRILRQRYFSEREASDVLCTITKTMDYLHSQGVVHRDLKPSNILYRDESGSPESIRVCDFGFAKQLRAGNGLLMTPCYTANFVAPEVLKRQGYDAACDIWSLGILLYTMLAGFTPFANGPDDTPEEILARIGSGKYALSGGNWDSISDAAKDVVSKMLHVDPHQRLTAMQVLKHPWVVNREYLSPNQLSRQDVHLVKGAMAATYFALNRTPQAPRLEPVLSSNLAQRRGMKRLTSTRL
Protein kinase C epsilon type (Homo sapiens), sequence (Q02156 whole entry, the tested form may be a part): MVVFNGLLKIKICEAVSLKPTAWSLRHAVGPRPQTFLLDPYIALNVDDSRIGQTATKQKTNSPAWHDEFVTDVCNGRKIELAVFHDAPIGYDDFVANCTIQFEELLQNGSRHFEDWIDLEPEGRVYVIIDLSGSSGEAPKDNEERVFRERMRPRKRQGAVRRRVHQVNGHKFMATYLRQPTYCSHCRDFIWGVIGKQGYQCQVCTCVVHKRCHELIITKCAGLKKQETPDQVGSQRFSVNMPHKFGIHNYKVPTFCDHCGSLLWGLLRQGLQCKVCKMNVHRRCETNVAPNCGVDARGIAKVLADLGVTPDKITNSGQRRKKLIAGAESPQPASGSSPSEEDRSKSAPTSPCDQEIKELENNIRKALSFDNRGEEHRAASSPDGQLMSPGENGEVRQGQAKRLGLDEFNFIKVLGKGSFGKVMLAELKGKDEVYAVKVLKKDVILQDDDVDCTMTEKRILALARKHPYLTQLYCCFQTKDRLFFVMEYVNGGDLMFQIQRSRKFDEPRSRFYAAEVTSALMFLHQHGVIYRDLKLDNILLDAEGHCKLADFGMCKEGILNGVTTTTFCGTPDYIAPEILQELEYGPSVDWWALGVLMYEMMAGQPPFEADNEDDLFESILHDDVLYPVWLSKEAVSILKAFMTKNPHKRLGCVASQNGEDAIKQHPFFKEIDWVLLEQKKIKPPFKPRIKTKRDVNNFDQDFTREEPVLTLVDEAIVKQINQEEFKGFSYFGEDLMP
BMP-2-inducible protein kinase (Homo sapiens), sequence (Q9NSY1 whole entry, looked up, the tested form may be a part): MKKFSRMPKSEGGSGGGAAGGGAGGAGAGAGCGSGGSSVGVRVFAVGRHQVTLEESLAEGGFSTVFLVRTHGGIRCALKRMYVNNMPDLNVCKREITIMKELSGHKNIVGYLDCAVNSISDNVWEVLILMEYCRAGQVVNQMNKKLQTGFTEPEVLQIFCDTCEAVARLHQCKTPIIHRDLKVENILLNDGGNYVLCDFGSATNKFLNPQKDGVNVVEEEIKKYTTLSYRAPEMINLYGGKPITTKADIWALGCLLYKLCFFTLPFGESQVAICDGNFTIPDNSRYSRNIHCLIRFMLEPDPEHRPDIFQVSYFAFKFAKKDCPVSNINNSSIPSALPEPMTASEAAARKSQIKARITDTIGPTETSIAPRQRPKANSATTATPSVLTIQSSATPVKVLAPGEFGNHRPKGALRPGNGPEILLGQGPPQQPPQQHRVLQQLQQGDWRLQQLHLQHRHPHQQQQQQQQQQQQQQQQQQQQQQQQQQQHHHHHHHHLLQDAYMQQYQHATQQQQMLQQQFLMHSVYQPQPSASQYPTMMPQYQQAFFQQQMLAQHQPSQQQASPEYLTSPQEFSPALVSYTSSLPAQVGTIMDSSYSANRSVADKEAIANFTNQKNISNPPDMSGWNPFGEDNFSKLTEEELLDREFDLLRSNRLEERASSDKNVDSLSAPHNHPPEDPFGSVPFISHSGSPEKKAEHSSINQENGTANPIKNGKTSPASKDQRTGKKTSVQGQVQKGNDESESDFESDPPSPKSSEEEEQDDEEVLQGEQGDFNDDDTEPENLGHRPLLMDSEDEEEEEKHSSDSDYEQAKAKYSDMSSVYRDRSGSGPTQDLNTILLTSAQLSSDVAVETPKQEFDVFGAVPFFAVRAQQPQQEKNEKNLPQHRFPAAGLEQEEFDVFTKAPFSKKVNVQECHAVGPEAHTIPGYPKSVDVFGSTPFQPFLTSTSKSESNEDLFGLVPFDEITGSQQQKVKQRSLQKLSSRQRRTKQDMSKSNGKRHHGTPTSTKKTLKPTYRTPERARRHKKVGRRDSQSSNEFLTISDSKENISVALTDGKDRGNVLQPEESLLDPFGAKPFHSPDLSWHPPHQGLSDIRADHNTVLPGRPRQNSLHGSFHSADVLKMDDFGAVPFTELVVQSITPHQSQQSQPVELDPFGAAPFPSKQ
Protein-tyrosine kinase 6 (Homo sapiens), sequence (Q13882 whole entry, looked up, the tested form may be a part): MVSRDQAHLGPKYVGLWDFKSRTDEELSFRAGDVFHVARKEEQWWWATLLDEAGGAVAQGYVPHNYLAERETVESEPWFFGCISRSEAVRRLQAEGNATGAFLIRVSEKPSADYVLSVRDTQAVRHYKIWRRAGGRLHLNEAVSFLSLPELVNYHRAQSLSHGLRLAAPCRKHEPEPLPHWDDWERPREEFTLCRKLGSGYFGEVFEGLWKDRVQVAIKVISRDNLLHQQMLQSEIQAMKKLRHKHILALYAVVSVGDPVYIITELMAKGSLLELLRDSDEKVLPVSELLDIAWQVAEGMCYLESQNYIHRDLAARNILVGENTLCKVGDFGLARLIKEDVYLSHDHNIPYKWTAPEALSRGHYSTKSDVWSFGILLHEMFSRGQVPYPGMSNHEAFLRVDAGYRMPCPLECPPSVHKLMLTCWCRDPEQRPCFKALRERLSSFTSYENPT
Serine/threonine-protein kinase PAK 3 (Homo sapiens), sequence (O75914 whole entry, looked up, the tested form may be a part): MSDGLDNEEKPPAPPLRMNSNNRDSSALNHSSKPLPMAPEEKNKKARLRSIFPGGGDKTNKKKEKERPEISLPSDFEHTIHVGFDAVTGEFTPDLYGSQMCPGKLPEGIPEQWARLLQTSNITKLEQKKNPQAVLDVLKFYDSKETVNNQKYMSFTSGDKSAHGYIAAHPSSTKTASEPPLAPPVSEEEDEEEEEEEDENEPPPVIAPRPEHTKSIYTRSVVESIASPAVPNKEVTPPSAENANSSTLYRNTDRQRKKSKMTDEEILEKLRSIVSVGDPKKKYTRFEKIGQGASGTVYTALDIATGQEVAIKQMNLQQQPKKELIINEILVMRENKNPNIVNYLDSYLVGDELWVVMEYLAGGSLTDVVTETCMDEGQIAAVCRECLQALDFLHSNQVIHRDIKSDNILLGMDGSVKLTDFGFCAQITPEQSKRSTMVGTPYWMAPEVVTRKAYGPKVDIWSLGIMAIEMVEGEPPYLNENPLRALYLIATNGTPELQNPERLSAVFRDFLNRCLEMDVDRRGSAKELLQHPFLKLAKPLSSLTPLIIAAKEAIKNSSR
Calcium/calmodulin-dependent protein kinase type II subunit alpha (Homo sapiens), sequence (Q9UQM7 whole entry, the tested form may be a part): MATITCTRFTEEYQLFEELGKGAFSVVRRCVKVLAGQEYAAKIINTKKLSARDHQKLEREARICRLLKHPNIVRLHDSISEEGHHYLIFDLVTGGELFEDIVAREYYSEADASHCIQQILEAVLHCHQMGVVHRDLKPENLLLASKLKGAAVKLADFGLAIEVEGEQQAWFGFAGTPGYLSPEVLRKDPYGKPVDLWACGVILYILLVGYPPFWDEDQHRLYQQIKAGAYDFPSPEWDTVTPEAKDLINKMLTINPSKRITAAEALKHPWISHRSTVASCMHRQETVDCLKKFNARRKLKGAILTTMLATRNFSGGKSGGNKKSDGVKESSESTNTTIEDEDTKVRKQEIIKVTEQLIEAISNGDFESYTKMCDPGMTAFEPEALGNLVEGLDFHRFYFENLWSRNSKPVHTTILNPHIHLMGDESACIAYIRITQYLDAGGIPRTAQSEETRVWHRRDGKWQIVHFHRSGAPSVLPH

With `O=C(Nc1cc(-c2cn(CCNc3c4c(nc5ccccc35)CCCC4)nn2)ccn1)Nc1cccc2c1C1CCCCN1C2=O` (racemic) the Activity [1] was 90%, the Activity [2] was 50% and the Activity [3] was 0%. The Activity [4] was 100%, the Activity [5] was 82% and the Activity [6] was 74%. For the same compound, the Activity [7] was 2.9%, the Activity [8] was 11% and the Activity [9] was 40%. The Activity [10] was 0.55%, the Activity [11] was 12% and the Activity [12] was 15%. It also gave an Activity [13] of 67%, an Activity [14] of 30% and an Activity [15] of 2.3%. It also gave an Activity [16] of 0.04%, an Activity [17] of 100% and an Activity [18] of 7.1%. For the same compound, the Activity [19] was 3.4%, the Activity [20] was 7.6% and the Activity [21] was 79%. The Activity [22] was 93%, the Activity [23] was 79% and the Activity [24] was 9.2%.
